Columns and labels:
[1] = system: Rtkn; test: ToxTracker genotoxicity assay, Rtkn GFP reporter; conditions: fold induction vs vehicle control
[2] = Storage stability of the crosslinker dispersion (gelling / coagulation); conditions: dispersion pH 11 with TEA, Maxemul 7101
[3] = described in U.S. Pat. No. 5,133,997; cited from earlier work

CCCCOCC(CN1CC1)OC(=O)NCCCCCCn1c(=O)n(CCCCCCNC(=O)OC(COCCCC)CN2CC2)c(=O)n(CCCCCCNC(=O)OC(COCCCC)CN2CC2)c1=O (stereo not drawn) [Composition 1]
Rtkn GFP reporter induction level ([1]; With S9 rat liver extract, at 10% cytotoxicity, 3 h exposure and 24 h recovery): 1.0
Rtkn GFP reporter induction level ([1]; With S9 rat liver extract, at 25% cytotoxicity, 3 h exposure and 24 h recovery): 1.1
Rtkn GFP reporter induction level ([1]; With S9 rat liver extract, at 50% cytotoxicity, 3 h exposure and 24 h recovery): 1.1
Rtkn GFP reporter induction level ([1]; Without S9 rat liver extract, at 10% cytotoxicity, 24 h exposure): 1.0
Rtkn GFP reporter induction level ([1]; Without S9 rat liver extract, at 25% cytotoxicity, 24 h exposure): 1.0
Rtkn GFP reporter induction level ([1]; Without S9 rat liver extract, at 50% cytotoxicity, 24 h exposure): 0.9

O=C(NCCCCCCn1c(=O)n(CCCCCCNC(=O)OCCN2CC2)c(=O)n(CCCCCCNC(=O)OCCN2CC2)c1=O)OCCN1CC1 [Example C4]
Storage stability of dispersion [2]: a storage stable dispersion was not obtained
Time until severe coagulation was observed after preparation of the dispersion [2]: ≤ 4 h

O=C(CCN1CC1)OCC(CO)(COC(=O)CCN1CC1)COC(=O)CCN1CC1 [XAMA-7]
Stability in water [3]: unstable in water

Reference: patent US12378188B2, “Waterborne crosslinker composition” (priority 2020, dated 2025)
